This passage reports AC50, EC50 and IC50 results from ChEMBL document CHEMBL1201862, “PubChem BioAssay data set” (2004).

One assay concerns Escherichia coli. Description: microbe, parasite or virus in culture.
For the next assay, the target named is Mu-type opioid receptor (Homo sapiens, UniProt P35372). As to the kind of experiment: Counterscreen for agonists of heterodimerization of the mu 1 (OPRM1) and delta 1 (OPRD1) opioid receptors: Luminescence-based cell-based high throughput dose response assay to identify agonists of OPRM1 homodimerization. In kind it is functional.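 Note: U2OS cells expressing OPRM1 and beta-arrestin as split beta-galactosidase partners.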
Assay [1] deals with T1, Short transient receptor potential channel 4 (Mus musculus, UniProt Q9QUQ5).
T1 sequence (Q9QUQ5 whole entry): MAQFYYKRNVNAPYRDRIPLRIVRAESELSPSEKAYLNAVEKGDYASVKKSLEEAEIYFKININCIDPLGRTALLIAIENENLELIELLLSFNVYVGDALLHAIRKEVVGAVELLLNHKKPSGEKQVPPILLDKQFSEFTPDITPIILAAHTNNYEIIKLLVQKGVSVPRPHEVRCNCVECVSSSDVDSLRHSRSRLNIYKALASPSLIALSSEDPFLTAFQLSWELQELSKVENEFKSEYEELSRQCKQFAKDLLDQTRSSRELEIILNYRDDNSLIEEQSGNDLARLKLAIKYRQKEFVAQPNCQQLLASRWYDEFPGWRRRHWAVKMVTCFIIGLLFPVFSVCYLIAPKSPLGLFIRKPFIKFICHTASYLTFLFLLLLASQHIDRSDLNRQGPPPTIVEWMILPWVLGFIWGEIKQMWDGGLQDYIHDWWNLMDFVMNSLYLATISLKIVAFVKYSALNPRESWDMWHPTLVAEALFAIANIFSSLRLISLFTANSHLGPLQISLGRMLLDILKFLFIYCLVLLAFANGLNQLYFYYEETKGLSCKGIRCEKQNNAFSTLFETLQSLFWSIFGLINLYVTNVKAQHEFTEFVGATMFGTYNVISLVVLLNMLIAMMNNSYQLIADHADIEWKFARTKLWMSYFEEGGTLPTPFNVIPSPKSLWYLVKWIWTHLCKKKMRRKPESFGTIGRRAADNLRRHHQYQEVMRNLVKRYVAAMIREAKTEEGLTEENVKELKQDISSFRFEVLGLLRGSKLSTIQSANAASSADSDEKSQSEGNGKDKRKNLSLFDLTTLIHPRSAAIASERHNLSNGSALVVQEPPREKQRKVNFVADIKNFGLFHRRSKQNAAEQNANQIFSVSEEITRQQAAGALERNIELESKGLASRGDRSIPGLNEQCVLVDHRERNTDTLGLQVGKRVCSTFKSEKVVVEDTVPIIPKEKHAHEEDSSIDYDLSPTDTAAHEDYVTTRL
Description: mouse TRPC4 channel inhibitors, dose response, cell-based, HEK293 TRPC4/mu-opioid, Fluo-4 calcium (AID 434942).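 Note: potency of inhibitors blocking the TRPC4 calcium response.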 It is filed as functional.

Assay [2] concerns the target 5-hydroxytryptamine receptor 5A (Homo sapiens, UniProt P47898). Description: Counterscreen for agonists of OPRM1-OPRD1 heterodimerization: luminescence-based cell-based high throughput dose response assay to identify agonists of 5-hydroxytryptamine (serotonin) 5A receptor (HTR5A). [Related pubchem assays (depositor defined):AID504326, AID504355, AID504692, AID504904, AID504905]. In kind it is functional. On the technique in general: A counterscreen serves to expose hits that act by an unwanted route or on another target.

For assay [3], the target named is Delta-type opioid receptor (Homo sapiens, UniProt P41143). Description: Counterscreen for agonists of heterodimerization of the mu 1 (OPRM1) and delta 1 (OPRD1) opioid receptors: Luminescence-based cell-based high throughput dose response assay to identify agonists of OPRD1 homodimerization. [Related pubchem assays (depositor defined):AID504326, AID504355, AID504692, AID504904, AID504905]. In kind it is functional.

The subject of assay [4] is HEK293. Description: cells. Particulars: Homo sapiens.
For assay [5], the system named is HEK293. As to the kind of experiment: cells. As to conditions: Homo sapiens. The source holds these as a separate data set.
Assay [6] can be described thus: cells. It is filed as functional, cell-based.
For assay [7], the target named is T2, Replicative DNA helicase DnaB (Mycobacterium tuberculosis, UniProt P9WMR3).
T2 sequence (P9WMR3 whole entry): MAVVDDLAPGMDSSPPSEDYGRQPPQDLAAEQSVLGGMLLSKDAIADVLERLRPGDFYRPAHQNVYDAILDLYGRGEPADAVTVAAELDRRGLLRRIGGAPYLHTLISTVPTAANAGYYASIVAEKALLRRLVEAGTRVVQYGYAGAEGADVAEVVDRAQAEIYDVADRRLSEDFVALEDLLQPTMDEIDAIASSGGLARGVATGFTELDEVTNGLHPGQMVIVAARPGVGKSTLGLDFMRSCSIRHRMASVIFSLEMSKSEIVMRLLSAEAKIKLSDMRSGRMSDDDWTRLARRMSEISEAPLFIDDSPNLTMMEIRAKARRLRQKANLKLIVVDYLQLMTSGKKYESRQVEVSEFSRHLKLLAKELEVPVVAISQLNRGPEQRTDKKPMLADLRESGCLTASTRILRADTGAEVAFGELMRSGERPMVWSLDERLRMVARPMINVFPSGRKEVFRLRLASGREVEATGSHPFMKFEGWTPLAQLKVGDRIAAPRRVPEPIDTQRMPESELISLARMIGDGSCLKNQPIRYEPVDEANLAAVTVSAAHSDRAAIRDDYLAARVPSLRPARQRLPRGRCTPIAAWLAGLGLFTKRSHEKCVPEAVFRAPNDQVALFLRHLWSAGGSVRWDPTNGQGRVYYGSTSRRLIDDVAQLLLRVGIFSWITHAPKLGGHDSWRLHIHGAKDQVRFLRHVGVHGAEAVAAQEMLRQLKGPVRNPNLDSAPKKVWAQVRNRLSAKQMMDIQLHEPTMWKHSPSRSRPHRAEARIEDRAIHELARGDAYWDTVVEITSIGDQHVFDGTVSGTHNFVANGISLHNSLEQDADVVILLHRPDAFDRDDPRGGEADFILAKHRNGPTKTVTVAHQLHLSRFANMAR
Description: DnaB intein splicing inhibitors, dose response, biochemical, cell-free fluorescence (AID 449749). It is filed as functional.

For assay [8], the target named is T3, Microphthalmia-associated transcription factor (Homo sapiens, UniProt O75030).
T3 sequence (O75030 whole entry): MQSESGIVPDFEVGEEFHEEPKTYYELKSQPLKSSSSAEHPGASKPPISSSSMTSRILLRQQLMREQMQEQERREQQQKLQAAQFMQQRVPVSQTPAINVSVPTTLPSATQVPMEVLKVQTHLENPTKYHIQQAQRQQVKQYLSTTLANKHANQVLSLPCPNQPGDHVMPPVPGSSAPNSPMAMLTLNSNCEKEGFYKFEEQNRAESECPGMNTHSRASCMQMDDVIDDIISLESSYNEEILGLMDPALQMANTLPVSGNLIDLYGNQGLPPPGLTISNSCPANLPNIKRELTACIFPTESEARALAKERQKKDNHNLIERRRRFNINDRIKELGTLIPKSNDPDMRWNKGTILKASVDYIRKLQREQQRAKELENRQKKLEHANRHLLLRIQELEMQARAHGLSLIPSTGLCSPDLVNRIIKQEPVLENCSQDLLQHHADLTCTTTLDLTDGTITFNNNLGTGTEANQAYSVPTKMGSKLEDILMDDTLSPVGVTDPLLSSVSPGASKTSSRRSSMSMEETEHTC
Description: TRPM1 promoter luciferase signal decrease, dose response, MITF inhibitor project, cell-based, SK-MEL-5, cherry-picked, set 3 (AID 493073).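 Note: SK-MEL-5 melanoma cells with luciferase driven by the MITF target TRPM1 promoter.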 It is filed as functional.

The target in a further assay is T4, Hexokinase HKDC1 (Homo sapiens, UniProt Q2TB90).
T4 sequence (Q2TB90 whole entry): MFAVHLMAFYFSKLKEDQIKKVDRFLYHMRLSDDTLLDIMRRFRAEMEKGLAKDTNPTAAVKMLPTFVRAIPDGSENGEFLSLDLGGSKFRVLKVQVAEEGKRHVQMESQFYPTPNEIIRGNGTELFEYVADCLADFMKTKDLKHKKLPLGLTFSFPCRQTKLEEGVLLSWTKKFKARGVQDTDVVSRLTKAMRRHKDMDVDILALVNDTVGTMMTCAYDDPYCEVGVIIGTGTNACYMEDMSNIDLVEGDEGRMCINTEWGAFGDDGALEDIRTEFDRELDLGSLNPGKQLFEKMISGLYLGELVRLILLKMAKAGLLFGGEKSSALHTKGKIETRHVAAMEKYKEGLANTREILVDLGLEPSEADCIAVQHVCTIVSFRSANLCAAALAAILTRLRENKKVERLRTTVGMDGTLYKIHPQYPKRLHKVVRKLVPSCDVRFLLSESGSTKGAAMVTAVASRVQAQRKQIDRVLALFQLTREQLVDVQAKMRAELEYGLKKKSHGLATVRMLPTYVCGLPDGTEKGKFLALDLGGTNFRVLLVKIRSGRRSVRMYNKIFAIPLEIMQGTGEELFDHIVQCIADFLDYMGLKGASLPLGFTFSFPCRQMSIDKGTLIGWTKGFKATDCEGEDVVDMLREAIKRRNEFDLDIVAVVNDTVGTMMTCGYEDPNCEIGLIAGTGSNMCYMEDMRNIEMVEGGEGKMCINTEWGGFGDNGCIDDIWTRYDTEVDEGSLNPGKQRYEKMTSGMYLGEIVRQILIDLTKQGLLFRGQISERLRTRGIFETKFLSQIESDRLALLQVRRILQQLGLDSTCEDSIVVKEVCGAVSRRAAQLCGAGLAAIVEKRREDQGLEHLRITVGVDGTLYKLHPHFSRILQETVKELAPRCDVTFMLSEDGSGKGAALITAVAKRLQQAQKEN
Description: HKDC1 hexokinase inhibitors, dose response, biochemical, W721R variant (AID 504729). It is filed as functional.

A short description of assay [9]: cells. It is filed as functional, cell-based. The source holds these as a separate data set.
For another assay, the target named is T5, Protein RecA (Mycobacterium tuberculosis, UniProt P9WHJ3).
T5 sequence (P9WHJ3 whole entry): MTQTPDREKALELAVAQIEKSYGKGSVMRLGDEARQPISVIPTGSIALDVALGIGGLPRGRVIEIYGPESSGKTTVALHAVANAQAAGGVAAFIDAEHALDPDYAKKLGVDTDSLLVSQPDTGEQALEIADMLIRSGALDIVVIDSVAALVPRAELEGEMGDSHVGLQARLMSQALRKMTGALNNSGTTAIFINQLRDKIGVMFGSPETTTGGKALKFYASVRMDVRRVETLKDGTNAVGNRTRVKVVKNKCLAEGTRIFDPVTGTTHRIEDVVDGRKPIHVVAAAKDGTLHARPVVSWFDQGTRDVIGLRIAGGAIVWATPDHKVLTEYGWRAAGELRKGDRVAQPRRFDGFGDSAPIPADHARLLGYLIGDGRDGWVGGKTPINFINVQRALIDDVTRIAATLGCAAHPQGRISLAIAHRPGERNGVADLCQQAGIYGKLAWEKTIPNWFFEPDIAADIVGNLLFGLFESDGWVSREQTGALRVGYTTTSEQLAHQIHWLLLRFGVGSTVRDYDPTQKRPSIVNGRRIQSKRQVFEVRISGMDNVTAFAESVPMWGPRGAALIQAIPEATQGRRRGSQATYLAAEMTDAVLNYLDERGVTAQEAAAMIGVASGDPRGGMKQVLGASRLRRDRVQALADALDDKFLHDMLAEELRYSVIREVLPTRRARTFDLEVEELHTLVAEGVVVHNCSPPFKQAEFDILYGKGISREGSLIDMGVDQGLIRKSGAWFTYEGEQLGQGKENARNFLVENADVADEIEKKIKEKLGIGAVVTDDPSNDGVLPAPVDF
Description: Fluorescence Cell-Free Homogeneous Dose Retest to Identify Inhibitors of RecA-Intein Splicing Activity. [Related pubchem assays (depositor defined):AID2097, AID2223, AID489010, AID492950]. In kind it is functional.

For assay [10], the target named is SWI/SNF-related matrix-associated actin-dependent regulator of chromatin subfamily A member 2 (Homo sapiens, UniProt P51531). As to the kind of experiment: Luminescence-based cell-based high throughput dose response assay to identify activators of the function of SWI/SNF related, matrix associated, actin dependent regulator of chromatin, subfamily a, member 2 (SMARCA2, BRM). In kind it is functional.

Assay [11] is described as follows: Counterscreen for activators of the function of SWI/SNF related, matrix associated, actin dependent regulator of chromatin, subfamily a, member 2 (SMARCA2, BRM): Luminescence-based cell-based high throughput dose response assay to identify non-selective compounds using the VP16 reporter assay. It is filed as functional.

Calls of active or inactive are those of the source.

Chain of Mu-type opioid receptor (P35372 whole entry): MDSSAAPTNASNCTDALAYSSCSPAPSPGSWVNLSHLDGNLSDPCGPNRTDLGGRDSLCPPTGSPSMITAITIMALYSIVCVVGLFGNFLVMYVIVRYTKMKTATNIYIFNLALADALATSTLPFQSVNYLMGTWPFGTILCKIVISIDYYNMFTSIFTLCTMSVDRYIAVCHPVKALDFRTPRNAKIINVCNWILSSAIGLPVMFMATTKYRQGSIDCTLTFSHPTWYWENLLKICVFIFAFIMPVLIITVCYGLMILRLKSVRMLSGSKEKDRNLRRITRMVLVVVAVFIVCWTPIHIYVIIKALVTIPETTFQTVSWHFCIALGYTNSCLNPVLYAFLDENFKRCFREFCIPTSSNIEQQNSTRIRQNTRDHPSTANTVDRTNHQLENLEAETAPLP
Chain of SWI/SNF-related matrix-associated actin-dependent regulator of chromatin subfamily A member 2 (P51531 whole entry): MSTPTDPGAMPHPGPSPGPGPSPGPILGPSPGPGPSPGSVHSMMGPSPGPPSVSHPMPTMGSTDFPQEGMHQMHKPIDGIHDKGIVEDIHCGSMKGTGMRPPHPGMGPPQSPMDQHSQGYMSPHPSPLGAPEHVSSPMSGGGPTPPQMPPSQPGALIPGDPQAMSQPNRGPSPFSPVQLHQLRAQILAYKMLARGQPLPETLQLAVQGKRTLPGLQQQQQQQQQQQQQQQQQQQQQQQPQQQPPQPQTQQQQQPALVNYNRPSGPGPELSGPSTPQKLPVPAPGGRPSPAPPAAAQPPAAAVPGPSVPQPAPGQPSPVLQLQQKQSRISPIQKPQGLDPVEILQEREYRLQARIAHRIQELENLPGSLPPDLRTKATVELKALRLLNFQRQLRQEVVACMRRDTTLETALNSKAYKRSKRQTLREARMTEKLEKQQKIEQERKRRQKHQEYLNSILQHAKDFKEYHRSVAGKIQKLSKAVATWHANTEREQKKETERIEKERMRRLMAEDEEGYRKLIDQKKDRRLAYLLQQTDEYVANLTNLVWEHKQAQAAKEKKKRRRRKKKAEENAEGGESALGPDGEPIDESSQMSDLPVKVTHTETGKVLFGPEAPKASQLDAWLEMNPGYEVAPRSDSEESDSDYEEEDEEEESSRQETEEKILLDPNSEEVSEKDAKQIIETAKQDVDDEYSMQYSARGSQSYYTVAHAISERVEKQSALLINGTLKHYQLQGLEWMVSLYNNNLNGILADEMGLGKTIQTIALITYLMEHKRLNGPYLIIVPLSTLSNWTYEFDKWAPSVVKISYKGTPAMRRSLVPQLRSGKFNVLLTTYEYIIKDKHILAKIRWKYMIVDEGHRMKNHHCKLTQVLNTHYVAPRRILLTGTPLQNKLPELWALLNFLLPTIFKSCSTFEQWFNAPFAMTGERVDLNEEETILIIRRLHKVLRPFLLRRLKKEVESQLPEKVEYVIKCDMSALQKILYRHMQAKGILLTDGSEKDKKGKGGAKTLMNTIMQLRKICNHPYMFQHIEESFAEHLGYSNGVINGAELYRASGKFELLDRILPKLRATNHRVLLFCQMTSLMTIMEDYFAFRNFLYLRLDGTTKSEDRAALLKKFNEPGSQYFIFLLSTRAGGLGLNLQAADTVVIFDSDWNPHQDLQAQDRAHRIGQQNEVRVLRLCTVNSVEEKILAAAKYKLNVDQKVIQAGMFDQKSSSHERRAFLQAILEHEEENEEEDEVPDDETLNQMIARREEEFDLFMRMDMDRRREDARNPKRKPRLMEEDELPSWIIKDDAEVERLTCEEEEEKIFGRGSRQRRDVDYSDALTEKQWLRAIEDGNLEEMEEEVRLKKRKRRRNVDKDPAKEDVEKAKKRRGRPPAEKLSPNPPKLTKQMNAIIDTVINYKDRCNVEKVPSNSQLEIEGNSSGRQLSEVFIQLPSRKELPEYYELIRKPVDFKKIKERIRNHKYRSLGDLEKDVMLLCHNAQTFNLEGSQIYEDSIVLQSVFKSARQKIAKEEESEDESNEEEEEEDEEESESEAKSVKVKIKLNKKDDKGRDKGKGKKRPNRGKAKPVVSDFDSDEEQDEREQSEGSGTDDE
Chain of Delta-type opioid receptor (P41143 whole entry): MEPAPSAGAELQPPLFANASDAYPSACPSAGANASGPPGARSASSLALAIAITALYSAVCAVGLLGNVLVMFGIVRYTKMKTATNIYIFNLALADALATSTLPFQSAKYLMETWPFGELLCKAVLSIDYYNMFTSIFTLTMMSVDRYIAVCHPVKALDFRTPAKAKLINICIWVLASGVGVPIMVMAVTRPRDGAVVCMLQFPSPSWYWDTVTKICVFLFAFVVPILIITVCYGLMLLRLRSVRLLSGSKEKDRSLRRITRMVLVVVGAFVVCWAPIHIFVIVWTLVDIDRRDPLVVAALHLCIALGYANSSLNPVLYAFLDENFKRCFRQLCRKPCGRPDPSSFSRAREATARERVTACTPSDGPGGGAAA
Chain of 5-hydroxytryptamine receptor 5A (P47898 whole entry): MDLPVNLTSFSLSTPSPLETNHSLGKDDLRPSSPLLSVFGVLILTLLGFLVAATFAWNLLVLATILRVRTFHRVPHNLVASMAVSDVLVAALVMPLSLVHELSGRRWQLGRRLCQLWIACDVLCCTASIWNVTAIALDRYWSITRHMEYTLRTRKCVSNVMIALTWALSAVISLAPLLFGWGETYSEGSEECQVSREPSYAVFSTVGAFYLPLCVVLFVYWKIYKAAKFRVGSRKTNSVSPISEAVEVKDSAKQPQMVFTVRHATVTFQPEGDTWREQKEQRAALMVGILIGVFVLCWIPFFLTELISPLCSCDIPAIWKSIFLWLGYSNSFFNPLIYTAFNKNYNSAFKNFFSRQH

The AC50 is the midpoint of the concentration-response curve, whichever way the signal moves. On to `c1ccc(C2NCc3ccccc3-n3cccc32)cc1` (stereo not drawn), for which the AC50 in the assay on Escherichia coli was > 150 µM (inactive).

Turning to `Cc1nn(-c2ccccc2)c(C)c1NC(=O)COC(=O)c1ccc(Cl)c(S(N)(=O)=O)c1`, in the assay on Escherichia coli, the AC50 was 28.1 µM (active).

As a reminder, the EC50 is the concentration needed to bring the measured effect to its halfway point. `CCOC(=O)C1(CCc2ccccc2)CCN(Cc2ccco2)CC1`: the EC50 is > 92.5 µM (inactive) at Mu-type opioid receptor, 1.19 µM (active) in assay [1], > 92.5 µM (inactive) in assay [2] and > 92.5 µM (inactive) in assay [3].

Usually IC50 stands for the point on the concentration scale where inhibition reaches its midpoint. For `COc1ccc(-n2c(C)cc(C(=O)CCl)c2C)cc1`, the EC50 with HEK293 [4] was > 59.7 µM (inactive); in the assay with HEK293 [5], > 59.7 µM (inactive); in “cells [6]”, > 350 µM (not active); in “cells [9]”, > 350 µM (not active); on Protein RecA, 19 µM (active). Also, the AC50 in assay [7] was 22.9 µM (active); in assay [8] it was 6.44 µM (active). Also, the IC50 at Hexokinase HKDC1 was 27 µM (inactive).

Take `O=C1C2C3C=CC(C4CC34)C2C(=O)N1/N=C/c1ccc([N+](=O)[O-])o1` (stereo not drawn): the EC50 in assay [10] was > 91.1 µM (inactive); in the assay with HEK293 [4], > 59.6 µM (inactive); in the assay on HEK293 [5] it was > 59.6 µM (inactive); in assay [11], > 91.1 µM (inactive).
